Here are results for nine molecules from US6849761B2, “Substituted naphthoic acid derivatives useful in the treatment of insulin resistance and hyperglycemia” (Wyeth, priority 2002, dated 2005).

Structures can show the parent of a compound that is named as a salt.

The target of data set [1] is T1, human-derived recombinant PTPase-1B (hPTP-1B) (Homo sapiens, UniProt P18031).
T1 sequence (P18031 1-435): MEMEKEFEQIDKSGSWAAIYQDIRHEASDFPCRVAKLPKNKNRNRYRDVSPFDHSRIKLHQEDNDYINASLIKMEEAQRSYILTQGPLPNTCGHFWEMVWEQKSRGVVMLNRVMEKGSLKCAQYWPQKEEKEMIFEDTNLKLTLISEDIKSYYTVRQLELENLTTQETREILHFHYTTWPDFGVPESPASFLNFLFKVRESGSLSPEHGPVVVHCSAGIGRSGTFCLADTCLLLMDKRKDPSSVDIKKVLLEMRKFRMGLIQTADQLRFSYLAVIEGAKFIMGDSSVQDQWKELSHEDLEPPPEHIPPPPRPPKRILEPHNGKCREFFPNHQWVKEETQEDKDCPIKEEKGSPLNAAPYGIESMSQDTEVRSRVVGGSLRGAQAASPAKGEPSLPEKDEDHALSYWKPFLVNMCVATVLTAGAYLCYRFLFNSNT
The data set can be described thus: PTP-1B inhibition assay (DIFMUP fluorescence kinetic assay). It counts as biochemical. The note with it: inhibitor at 40 μM; 20 μM DIFMUP; 1 nM enzyme; calculated from average velocity Va vs control. Here is the method: Measurement of PTPase activity: Compounds are assayed in an enzyme activity-based assay. PTP-1B is known to dephosphorylate phosphopeptides. This assay is a fluorescence intensity based kinetic assay, taking advantage of a non-peptidyl substrate, 6,8-difluoro-4-methylumbelliferyl phosphate (DIFMUP). When excited at 358 nm, the dephosphorylated product of DIFMUP emits at 450 nm.
Examples 1-5 (set forth below) were analyzed as follows. The assay was conducted in black 384-well non-treated plates (Costar#3710). The assay buffer contained 50 mM 3,3-dimethyl glutaric acid, pH 7.0, 48 mM NaCl, 1 mM EDTA. Inhibitors were prepared as DMSO solution and diluted to desired concentrations using 50 mM HEPES, pH 7.4. PTP-1B was diluted to a 2.5 nM working stock using the assay buffer containing additional 0.001% (w/v) hydrogenated Triton X-100. DIFMUP was diluted to 40 μM using the assay buffer. 5 μl of inhibitor was first dispensed into assay plate. In cases of control reactions, 5 μl of the assay buffer was dispensed. This was followed by 25 μl of DIFMUP working stock. The reaction was then initiated by the addition of 20 μl of PTP-1B working stock. The final DIFMUP concentration was 20 μM (˜1.6×Km). The final enzyme concentration was 1 nM and the detergent concentration was 0.0004% (w/v). Typical inhibitor concentrations were from 0.08 to 40 μM. The reaction progress was monitored continuously for 30 min.
Calculations: For data analysis, the last five data points were used to obtain a slope corresponding to the estimated steady-state velocity (Vs), and the overall progress curves were used to obtain the average velocity (Va), by linear regression in both cases. The apparent final potency of inhibitor (Kiapp) was then calculated from Vs data, using the standard hyperbolic inhibition equation. The IC50 values were calculated from Va data using the sigmoidal inhibition equation. % inhibition values were calculated from Va values of inhibitor at 40 μM, and the average Va value of control reactions.

Usually melting point stands for the temperature, or range, at which the solid turns liquid. Turning to `COc1ccc2cc(C(=O)O)ccc2c1CNCc1ccc(S(N)(=O)=O)cc1` (as salt: salt) [Example 3, 5-({[4-(Aminosulfonyl)benzyl]amino}methyl)-6-methoxy-2-naphthoic acid], the melting point was 283 to 285 °C (dec.).
As usually defined, the inhibition is the relative decrease from the control value, in per cent. Take `COc1ccc2cc(C(=O)O)ccc2c1CNCc1ccc(OC(F)(F)F)cc1` [Example 1, 6-Methoxy-5-({[4-(trifluoromethoxy)benzyl]amino}methyl)-2-naphthoic acid]: the inhibition at 40 µM in data set [1] is 50%.
In the case of `O=C(O)COc1ccc2cc(C(=O)O)ccc2c1CNCc1ccc(OC(F)(F)F)cc1` [Example 5, 6-(Carboxymethoxy)-5-({[4-(trifluoromethoxy)benzyl]amino}methyl)-2-naphthoic acid], the melting point was > 266 °C (dec.). Besides, the inhibition at 40 µM in data set [1] is 38%.
In the case of `COc1ccc2cc(C(=O)O)ccc2c1CNCc1ccc(F)cc1` [Example 2, 5-{[(4-Fluorobenzyl)amino]methyl)-6-methoxy-2-naphthoic acid], in data set [1], the inhibition at 40 µM was 37%.
`COc1ccc2cc(C(=O)O)ccc2c1CNCc1ccc(OC(F)(F)F)cc1` (as salt: salt) [Example 1, 6-Methoxy-5-({[4-(trifluoromethoxy)benzyl]amino}methyl)-2-naphthoic acid] gave a melting point of 235 to 237 °C.
On the same count and under the same terms, to `COc1ccc2cc(C(=O)O)ccc2c1CNCc1ccc(F)cc1` (as salt: salt) [Example 2, 5-{[(4-Fluorobenzyl)amino]methyl)-6-methoxy-2-naphthoic acid] belongs 268 to 270 °C (dec.).
Turning to `COc1ccc2cc(C(=O)O)ccc2c1CNCc1ccc(S(N)(=O)=O)cc1` [Example 3, 5-({[4-(Aminosulfonyl)benzyl]amino}methyl)-6-methoxy-2-naphthoic acid], the inhibition at 40 µM in data set [1] is 23%.
Regarding `COc1ccc2cc(C(=O)O)ccc2c1CNCc1ccc(N(C)C)cc1` (as salt: salt) [Example 4, 5-({[4-(Dimethylamino)benzyl]amino}methyl)-6-methoxy-2-naphthoic acid], the melting point was > 215 °C (dec.).
With `COc1ccc2cc(C(=O)O)ccc2c1CNCc1ccc(N(C)C)cc1` [Example 4, 5-({[4-(Dimethylamino)benzyl]amino}methyl)-6-methoxy-2-naphthoic acid], in data set [1], the inhibition at 40 µM is 34%.
